{"source": "patent US8669232B2", "about": "“Flavonol compounds, a bioactive extract/fraction from Ulmus wallichiana and its compounds for prevention for treatment of osteo-health related disorders” (Council of Scientific & Industrial Research, priority 2008, dated 2014)", "key": {"[1]": {"system": "ovariectomized Sprague Dawley rats", "experiment": "BMD by DEXA in ovariectomized (Ovx) rats, bone loss model", "format": "in vivo", "conditions": "90 days, compared with Ovx + vehicle; for BMD tibia head: 5 mg/kg body weight oral daily", "description": "Bone mineral density of femur (global, head, neck), tibia (global, head, tibio-fibular separation point) and lumber vertebra (LV1, LV2, LV3, LV4) was determined by DEXA.\n(§1) K058 at 1 to 10 mg/kg body weight were given daily by oral route to Sprague Dawley (180-200 g) rats after bilateral ovariectomy (Ovx). This is the most widely used animal model for osteopenia (bone loss) mimicking human condition of post-menopausal bone loss. The extract was given in gum acacia (vehicle). Sham operated rats and Ovx rats were used as controls and given only gum acacia. Each group consisted of 10 rats and the groups were as follows: sham intact, Ovx, Ovx+1 mg/kg K058 and Ovx+5 mg/kg K058. Treatment started 24 h after the surgery and continued for 90 days. After 90 days, the rats were first acclimatized and then kept in metabolic cages with no food but only water for 24 h to collect urine samples. After 24 h, rats were returned to the cages with food and water ad libitum with oral administration of the extract as before foe an additional 24 hour. Rats were then euthanized and autopsied to collect blood, bones (tibia, femur, L1-L4 vertebrae) and uterus.\nas §1, with “K012” for “K058”, “doses of 1- and 5” for “1 to 10”, “(Ovx).” for “(Ovx). This is the most widely used animal model for osteopenia (bone loss) mimicking human condition of post-menopausal bone loss.”, “K012.” for “K058.”, “for” for “foe”"}, "calvarial osteoblasts": {"system": "calvarial osteoblasts", "experiment": "Alkaline phosphatase activity assay in calvarial osteoblasts", "format": "cell-based, neonatal Sprague-Dawley rats", "description": "Neonatal rat calvarial cell cultures are prepared as described previously (Chattopadhyay et al., Endocrinology 145:3451-62, 2004) using slight modification. Briefly, for calvarial osteoblast cultures, frontal and parietal bones from neonatal Sprague-Dawley rats (1-3 day old) were digested in 0.1% collagenase/0.1% dispase in α-MEM to obtain 5 sequential digests. The second through fifth digests are combined and grown to confluence at 37° C. and 5% CO2 in air in α-MEM, supplemented with 10% fetal bovine serum (FBS), 2 mM glutamine, 100 U/ml penicillin-streptomycin, non-essential amino acid solution and sodium pyruvate.\nFor alkaline phosphatase (ALP) assay, osteoblasts were plated in 96-well (2000 cells/well) plates in regular growth medium. Twenty-four hours later, when the cells formed a confluent monolayer, medium was replaced with α-MEM medium supplemented with 10% FBS, 10 mM β-glycerophosphate and 50 μg/ml ascorbic acid. Treatment was given with varying concentration of the test compound K012, K058, K068 and K100 at 1 nM and 100 nM concentration. Forty-eight hours after induction, ALP activity of the osteoblasts was determined as described by Akiyama et al (Exp Cell Res 235:362-369, 1997) with slight modifications. Briefly, cells were washed once with PBS and ALP activity was measured by adding ALP buffer (1 M diethanolamine, 0.5 mM MgCl2, 1 mg/ml PNPP, pH 9.0), incubating in 37° C., and absorbance (405 nm) was measured using a microplate spectrophotometer. Statistical significance was determined by paired two-tailed Student's t-tests."}, "Bone marrow cells (BMCs)": {"system": "Bone marrow cells (BMCs)", "experiment": "In vitro mineralization from mouse bone marrow", "format": "cell-based, balb/c mice", "conditions": "1 nM and 100 nM, 21 days", "description": "Adult balb/c mice were used in this study. Bone marrow cells (BMCs) were harvested from the femurs and tibias of the animals, as described elsewhere (Maniatopoulos et al. Cell Tissue Res 1988:254:317-30.; Ishaug et al., J Biomed Mater Res 1997; 36:17-28.). Briefly, bones were aseptically excised from the hind limbs of the mice following ether euthanasia. The soft tissue was removed, and the proximal end of the femur and distal end of the tibia were clipped off using sterile scissors, a hole was created in the knee joint end of each bone with an needle, and the marrow was flushed from the shaft with control medium (CM) which consisted of α-MEM supplemented with 10% fetal calf serum, 100 U/ml penicillin, 100 U/ml streptomycin (Sigma, Chemical Co., St. Louis, Mo., USA). The cells were suspended in this medium, and the cell suspensions from all bones were combined in a centrifuge tube. The suspension was spun down at 800 rpm for 5 min. Cells were counted by using a haemocytometer. The supernatant was aspirated, and the pellet was re-suspended in fresh CM and then seeded into 12-well plates. 200000 cells/well were cultured in 12-well plates and in a humidified atmosphere, with 5% CO2, at 37° C. in the same medium supplemented with 10 mM-β-glycerophosphate, 50 μg/ml L-ascorbic acid and 10^−8M dexamethasone with different concentration of the test compound. This medium was replaced every other day (John et al. Trends. Biomater. Artif. Organs 2002:16(1):28-33.; Connolly. Clin Orthop 1995:313: 8-18.; Gebhart and Lane. Acta Orthop Belg 1991:57(2):130-43.; Gurpinar et al. J Biomater Appl 2003; 18(1):25-33; Lan and Wang, Blood Substitutes. Biotechnol 2003; 31(1):59-68.). Treatments K012, K058, K068 and K0100 at 1 nM and 100 nM concentration were given for 21 days and after completion of the treatment samples were rinsed with PBS followed by fixation (4% HCHO for […]). Samples were then rinsed with nanopure water and stained for 10 min with 40 mM AR-S, pH 4.2, at room temperature. […] Photomicrographs of the stained wells were taken. Subsequently, alizarin red-S stain was extracted using 10% (w/v) CPC in […] sodium phosphate, pH 7.0, for […] at room temperature, and the resulting solutions were read on a Microplate reader with a test wavelength of 540 nm against a reference wavelength of 620 nm."}, "[2]": {"conditions": "5.0 mg/kg body weight oral daily"}}}
{"smiles": "O=C1c2c(cc(O)c([C@@H]3OC(CO)[C@@H](O)[C@H](O)C3O)c2O)O[C@@H](c2ccc(O)c(O)c2)[C@@H]1O", "note": "(stereo partly drawn) [K058, (2S,3S)-(+)-3′,4′,5,7-tetrahydroxydihydroflavonol-6-C-β-D-glucopyranoside]", "values": [{"measurement": "BMD tibia head", "setting": "[1]", "value": "increased"}, {"measurement": "BMD L4 vertebra", "setting": "[1]; 1.0&5.0 mg/kg body weight oral daily", "value": "higher"}, {"measurement": "BMD femur global", "setting": "[1]; 1.0-5.0 mg/kg oral daily", "value": "significantly higher"}, {"measurement": "BMD femur neck", "setting": "[1]; 1.0-5.0 mg/kg oral daily", "value": "significantly higher"}, {"measurement": "BMD femur shaft", "setting": "[1]; 1.0-5.0 mg/kg oral daily", "value": "significantly higher"}, {"measurement": "osteoblast differentiation (summary of in vitro effects)", "setting": "calvarial osteoblasts", "value": "promoted"}, {"measurement": "mineralization of bone marrow osteoblasts (alizarin red staining)", "setting": "Bone marrow cells (BMCs)", "value": "stimulated"}]}
{"smiles": "O=c1c(O)c(-c2ccc(O)c(O)c2)oc2cc(O)c(C3O[C@H](CO)[C@@H](O)[C@H](O)[C@H]3O)c(O)c12", "note": "(stereo partly shown) [K012, 6-Glucopyranosyl-3,3′,4′,5,7-pentahydroxyflavone]", "values": [{"measurement": "BMD tibio-fibular separation point (TFSP)", "setting": "[1]; 1.0 mg/kg body weight oral daily", "value": "increase"}, {"measurement": "BMD tibia head", "setting": "[1]", "value": "significantly higher"}, {"measurement": "BMD lumber vertebra global", "setting": "[1]; [2]", "value": "higher"}, {"measurement": "BMD second lumber vertebra", "setting": "[1]; [2]", "value": "higher"}, {"measurement": "BMD femur neck", "setting": "[1]; 5.0 mg/kg oral daily", "value": "significantly higher"}, {"measurement": "BMD tibia global", "setting": "[1]; 5.0 mg/kg oral daily", "value": "significantly higher"}, {"measurement": "BMD tibio-fibular separation point (TFSP)", "setting": "[1]; 5.0 mg/kg oral daily", "value": "significantly higher"}, {"measurement": "osteoblast differentiation (summary of in vitro effects)", "setting": "calvarial osteoblasts", "value": "promoted"}, {"measurement": "mineralization of bone marrow osteoblasts (alizarin red staining)", "setting": "Bone marrow cells (BMCs)", "value": "stimulated"}]}
